In patent US20250281506A1, “APPLICATION OF HYDROXYPROGESTERONE CAPROATE IN ENHANCING TUMOR TREATMENT EFFECT” (SHENZHEN EVERGREEN THERAPEUTICS CO., LTD., priority 2021, published 2025):
“Also recorded” adds a separate entry of the source.

Key:
Renca tumor = assay: BALB/c mouse Renca renal cell carcinoma tumor model, tumor inhibition rate; format: in vivo, BALB/c mice; parameters: Tumor Inhibition Rates (Compared with Control Group): concentration or dose not given beside the values; conditions: for Tumor Inhibition Rates (Compared with Control Group): Renca model
Procedure: BALB/c female mice, aged 6-8 weeks and weighing around 20 grams, were utilized. Renca cells (3.0×106) dissolved in 100 μL PBS were subcutaneously injected into the BALB/c mice. Upon reaching a tumor volume of about 70 mm^3, experimental animals were randomly distributed into control and treatment groups.
Lenvatinib was administered orally once daily at a dosage of 7.5 mg/kg; hydroxyprogesterone caproate was administered intraperitoneally (abbreviated as i.p. in the table) every two days. Anti-PD-1 antibody (BioXCell, Supplier: Yicon (Beijing) Medical Technology Inc.) was diluted in PBS and administered every four days at a dose of 100 μg per mouse.
Tumor size was measured biweekly using calipers for two-dimensional measurements. The volume was calculated using the formula and expressed in mm^3: V=(X^2Y)/2, where X and Y represent the shorter and longer diameters of the tumor, respectively.

CT26 tumor [1] = assay: BALB/c mouse CT26 tumor model with anti-PD-L1 antibody 10F.9G2; format: in vivo, BALB/c mice; conditions: anti-PD-L1 10F.9G2
Procedure: Female BALB/c mice aged 6-8 weeks, weighing approximately 20 grams, were used. CT26 cells (5.0×106) dissolved in 100 μL PBS were subcutaneously injected into the BALB/c mice. When the tumor volume reached ˜100 mm^3, the experimental animals were randomly assigned to control and treatment groups, and drug administration commenced.
Lenvatinib (Eisai, Japan) was administered orally once daily at a dose of 10 mg/kg; Hydroxyprogesterone Caproate was administered via intraperitoneal injection every two days; 10F.9G2 was administered every three days at a dose of 200 μg/mouse. Drug administration continued for approximately 20 days.
2) Tumor volume was measured twice a week, and its size was calculated using the formula: […]

MC38/hPD-L1 tumor = assay: Humanized PD-1 mouse MC38/hPD-L1 tumor model; format: in vivo, humanized PD-1 mice
Procedure: Humanized PD-1 mice, female, aged 6-8 weeks, weighing approximately 20 grams, were used. MC38/hPD-L1 cells (5.0×106) dissolved in 100 μL PBS were injected subcutaneously into the humanized PD-1 mice. Upon reaching a tumor volume of approximately ˜100 mm^3, experimental animals were randomly assigned to control and various treatment groups and subsequently initiated with drug administration.
Lenvatinib (Eisai, Japan) was administered orally once daily at a dose of 10 mg/kg. Hydroxyprogesterone Caproate was administered via intraperitoneal injection every two days. Pembrolizumab was administered every three days at a dose of 200 μg per mouse. The duration of drug administration lasted around 20 days.
2) Tumor volume measured twice weekly.

CT26 tumor [2] = assay: BALB/c mouse CT26 tumor model, tumor volume / tumor inhibition rate; format: in vivo, BALB/c mice; parameters: Tumor Inhibition Rate (Compared with Control Group): concentration or dose not given beside the values; conditions: for Tumor Inhibition Rate (Compared with Control Group): CT26 model
Procedure: Female BALB/c mice aged 6-8 weeks with a body weight of approximately 20 grams were used. CT26 cells (5.0×106) dissolved in 100 μL of PBS were subcutaneously injected into BALB/c mice. When the tumor volume reached approximately 100 mm^3, the experimental animals were randomly divided into control and various treatment groups for the experiment.
Lenvatinib was administered orally once daily at a dosage of 10 mg/kg. Hydroxyprogesterone caproate was administered via intraperitoneal injection (abbreviated as i.p. in the table below) every two days. Anti-PD-1 antibody (RMP1-14), diluted in PBS, was administered every three days at a dosage of 200 μg per mouse.
Tumor size was measured using calipers twice a week for two-dimensional assessment. Tumor volume was calculated using the formula V=(X2Y)/2, where X and Y represent the shorter and longer diameters of the tumor, respectively, expressed in mm^3.

SMILES | Tumor suppression effect (in words) (Renca tumor; BALB/c mouse Renca tumor model) | Tumor Inhibition Rates (Compared with Control Group) (Renca tumor; Day 6) [%] | Tumor Inhibition Rates (Compared with Control Group) (Renca tumor; Day 9) [%] | Tumor Inhibition Rates (Compared with Control Group) (Renca tumor; Day 13) [%] | Tumor Inhibition Rates (Compared with Control Group) (Renca tumor; Day 16) [%] | Tumor Inhibition Rates (Compared with Control Group) (Renca tumor; Day 20) [%] | Anti-tumor effect (in words) (CT26 tumor [1]) | Anti-tumor effect (in words) (MC38/hPD-L1 tumor) | Tumor suppression effect (in words) (CT26 tumor [2]; BALB/c mouse CT26 tumor model, HPC 20 mg/kg i.p., Lenvatinib 10 mg/kg p.o., RMP1-14 200 μg/mouse) | Tumor Inhibition Rate (Compared with Control Group) (CT26 tumor [2]; Day 0) [%] | Tumor Inhibition Rate (Compared with Control Group) (CT26 tumor [2]; Day 4) [%] | Tumor Inhibition Rate (Compared with Control Group) (CT26 tumor [2]; Day 7) [%] | Tumor Inhibition Rate (Compared with Control Group) (CT26 tumor [2]; Day 11) [%] | Tumor Inhibition Rate (Compared with Control Group) (CT26 tumor [2]; Day 14) [%] | Tumor Inhibition Rate (Compared with Control Group) (CT26 tumor [2]; Day 18) [%] | Tumor Inhibition Rate (Compared with Control Group) (CT26 tumor [2]; Day 20) [%]
CCCCCC(=O)O[C@]1(C(C)=O)CC[C@H]2[C@@H]3CCC4=CC(=O)CC[C@]4(C)[C@H]3CC[C@@]21C [HPC, Hydroxyprogesterone caproate] | exhibits a certain degree of tumor suppression | 0.00 | 40.00 | 48.51 | 43.95 | 56.59 | did not exhibit significant tumor suppression | did not exhibit significant tumor inhibitory effects | did not exhibit a favorable tumor suppression effect; also recorded: promoting tumor growth | 0.00 | 3.66 | −14.89 | −13.61 | −31.32 | −47.15 | −37.09
COc1cc2nccc(Oc3ccc(NC(=O)NC4CC4)c(Cl)c3)c2cc1C(N)=O [Lenvatinib] |  | 0.00 | 22.92 | 48.51 | 55.37 | 70.68 |  |  |  |  |  |  |  |  |  | 
